The subject of assay [1] is ISC-enriched organoids. The assay is described as follows: Primary screen, 384-well 2.5-D organoid differentiation (ENR+CD, 6 days): carbachol-induced lysozyme secretion (LYZ.S). The format is cell-based, murine. Conditions: primary screen, FC vs plate median. From the text: (§1) High-throughput screening.
Assay [2] deals with ISC-enriched organoids. Description: Primary screen, 384-well 2.5-D organoid differentiation (ENR+CD, 6 days): basal lysozyme secretion (LYZ.NS). The format is cell-based, murine. Conditions: primary screen; for Dose.FC.LYZ.NS: FC vs plate median; for Z.LYZ.NS: standard z score.
Description: as §1

Assay [3] has as its system ISC-enriched organoids. Description: Primary screen, 384-well 2.5-D organoid differentiation (ENR+CD, 6 days, Target Selective Inhibitor Library, vs whole-plate median): ATP (CellTiter-Glo 3D, CTG). Conditions: primary screen; for Dose.FC.CTG: FC vs plate median; for Z.CTG: standard z score.

As for `Cc1cc(SCc2sc(-c3ccc(C(F)(F)F)c(F)c3)nc2C)ccc1OCC(=O)O` [GW0742], the Dose.FC.LYZ.S is recorded as 0.048 log 2 fold change in assay [1] (Dose 0.08 uM), 0.106 log 2 fold change in assay [1] (Dose 0.40 uM), 0.014 log 2 fold change in assay [1] (Dose 2.00 uM) and −0.183 log 2 fold change in assay [1] (Dose 10.00 uM). The Dose.FC.LYZ.NS in assay [2] (Dose 0.08 uM) is on record as 0.052 log 2 fold change; in assay [2] (Dose 0.40 uM) it was 0.045 log 2 fold change; in assay [2] (Dose 2.00 uM), 0.026 log 2 fold change; in assay [2] (Dose 10.00 uM), −0.152 log 2 fold change. For the same compound, the Z.LYZ.NS was 0.454 in assay [2] (Dose 0.08 uM), 0.390 in assay [2] (Dose 0.40 uM), 0.231 in assay [2] (Dose 2.00 uM) and −1.322 in assay [2] (Dose 10.00 uM). The Dose.FC.CTG in assay [3] (Dose 0.08 uM) is recorded as −0.751 log 2 fold change; in assay [3] (Dose 0.40 uM), −0.489 log 2 fold change; in assay [3] (Dose 2.00 uM), −0.249 log 2 fold change; in assay [3] (Dose 10.00 uM) it was −0.451 log 2 fold change. For the same compound, the Z.CTG in assay [3] (Dose 0.08 uM) is on record as −1.794; in assay [3] (Dose 0.40 uM) it was −1.167; in assay [3] (Dose 2.00 uM) it was −0.596; in assay [3] (Dose 10.00 uM) it was −1.078.

For `COc1ccc(COc2ccc(Cc3cnc(N)nc3N)cc2OC)cc1` [GW2580], the Dose.FC.LYZ.S in assay [1] (Dose 0.08 uM) is recorded as −0.013 log 2 fold change; in assay [1] (Dose 0.40 uM) it was 0.020 log 2 fold change; in assay [1] (Dose 2.00 uM), −0.060 log 2 fold change; in assay [1] (Dose 10.00 uM), −0.026 log 2 fold change. For the same compound, the Dose.FC.LYZ.NS is reported as 0.006 log 2 fold change in assay [2] (Dose 0.08 uM), 0.014 log 2 fold change in assay [2] (Dose 0.40 uM), −0.060 log 2 fold change in assay [2] (Dose 2.00 uM) and −0.018 log 2 fold change in assay [2] (Dose 10.00 uM). Besides, the Z.LYZ.NS is 0.056 in assay [2] (Dose 0.08 uM), 0.118 in assay [2] (Dose 0.40 uM), −0.525 in assay [2] (Dose 2.00 uM) and −0.158 in assay [2] (Dose 10.00 uM). Moreover, the Dose.FC.CTG is −0.042 log 2 fold change in assay [3] (Dose 0.08 uM), −0.284 log 2 fold change in assay [3] (Dose 0.40 uM), 0.029 log 2 fold change in assay [3] (Dose 2.00 uM) and −0.038 log 2 fold change in assay [3] (Dose 10.00 uM). Further, the Z.CTG in assay [3] (Dose 0.08 uM) is on record as −0.101; in assay [3] (Dose 0.40 uM), −0.678; in assay [3] (Dose 2.00 uM), 0.068; in assay [3] (Dose 10.00 uM), −0.091.

Turning to `Cl.O=C(O)Cc1cccc(OCCCN(Cc2cccc(C(F)(F)F)c2Cl)CC(c2ccccc2)c2ccccc2)c1` [GW3965 HCl], the Dose.FC.LYZ.S is given as 0.091 log 2 fold change in assay [1] (Dose 0.08 uM), 0.074 log 2 fold change in assay [1] (Dose 0.40 uM), 0.179 log 2 fold change in assay [1] (Dose 2.00 uM) and −0.047 log 2 fold change in assay [1] (Dose 10.00 uM). Besides, the Dose.FC.LYZ.NS in assay [2] (Dose 0.08 uM) was 0.059 log 2 fold change; in assay [2] (Dose 0.40 uM), 0.002 log 2 fold change; in assay [2] (Dose 2.00 uM), 0.077 log 2 fold change; in assay [2] (Dose 10.00 uM) it was −0.009 log 2 fold change. The Z.LYZ.NS was 0.516 in assay [2] (Dose 0.08 uM), 0.013 in assay [2] (Dose 0.40 uM), 0.673 in assay [2] (Dose 2.00 uM) and −0.080 in assay [2] (Dose 10.00 uM). Further, the Dose.FC.CTG in assay [3] (Dose 0.08 uM) is 0.138 log 2 fold change; in assay [3] (Dose 0.40 uM) it was 0.201 log 2 fold change; in assay [3] (Dose 2.00 uM), 0.229 log 2 fold change; in assay [3] (Dose 10.00 uM), −0.078 log 2 fold change. In addition, the Z.CTG in assay [3] (Dose 0.08 uM) is recorded as 0.330; in assay [3] (Dose 0.40 uM), 0.481; in assay [3] (Dose 2.00 uM), 0.546; in assay [3] (Dose 10.00 uM) it was −0.186.

These data come from patent US20230398130A1, “METHODS AND COMPOSITIONS FOR DIFFERENTIATING STEM CELLS” (Massachusetts Institute of Technology, priority 2020, published 2023).
